Broadly, the logP is the decadic logarithm of the partition coefficient of the neutral form, usually between octanol and water. By IC50 is commonly meant the concentration that gives 50% inhibition.

Structures are written as SMILES. Values after ≈ are worked out from the molar mass of the structure shown.

The test system of one data set is Staphylococcus aureus. Description: Antibacterial activity against Staphylococcus aureus MTCC 2901 after 24 hrs by tube dilution method. It counts as functional.
Conditions: not given
On to `CCOC(=O)C1=C(C)NC(=O)NC1c1cn(C(=O)CNc2ccc([N+](=O)[O-])cc2C)c2ccccc12` (centres undefined), for which the “-logMIC” value stood at 1.59.
Same read-out and setting: for `CCOC(=O)C1=C(C)NC(=S)NC1c1cn(C(=O)CNc2ccc([N+](=O)[O-])cc2C)c2ccccc12` (centres undefined) the value was 1.61; for `CCOC(=O)C1=C(C)NC(=O)NC1c1cn(C(=O)CNc2ccccc2[N+](=O)[O-])c2ccccc12` (centres undefined), 1.58.

Another data set relates to Bacillus subtilis. Description: Antibacterial activity against Bacillus subtilis MTCC 2063 after 24 hrs by tube dilution method.
Conditions: not given
It counts as functional.
`CCOC(=O)C1=C(C)NC(=O)NC1c1cn(C(=O)CNc2ccc([N+](=O)[O-])cc2C)c2ccccc12` (centres undefined): the “-logMIC” value came to 1.29.
Still for that read-out and setting: next, `CCOC(=O)C1=C(C)NC(=S)NC1c1cn(C(=O)CNc2ccc([N+](=O)[O-])cc2C)c2ccccc12` (centres undefined): 1.61; `CCOC(=O)C1=C(C)NC(=O)NC1c1cn(C(=O)CNc2ccccc2[N+](=O)[O-])c2ccccc12` (centres undefined): 1.58.

The next data set has as its system Escherichia coli. Description: Antibacterial activity against Escherichia coli MTCC 1652 after 24 hrs by tube dilution method.
Conditions: not given
Format: functional.
As for `CCOC(=O)C1=C(C)NC(=O)NC1c1cn(C(=O)CNc2ccc([N+](=O)[O-])cc2C)c2ccccc12` (centres undefined), the “-logMIC” value was found to be 1.59.
Same read-out and setting: next, `CCOC(=O)C1=C(C)NC(=S)NC1c1cn(C(=O)CNc2ccc([N+](=O)[O-])cc2C)c2ccccc12` (centres undefined): 1.61.
Regarding `CCOC(=O)C1=C(C)NC(=O)NC1c1cn(C(=O)CNc2ccccc2[N+](=O)[O-])c2ccccc12` (centres undefined), the “-logMIC” value stood at 1.58.

In a further data set the test system is Candida albicans. Description: Antifungal activity against Candida albicans MTCC 227 after 48 hrs by tube dilution method. Format: functional.
Conditions: not given
On to `CCOC(=O)C1=C(C)NC(=O)NC1c1cn(C(=O)CNc2ccc([N+](=O)[O-])cc2C)c2ccccc12` (centres undefined), for which the “-logMIC” value stood at 1.59.
Take `CCOC(=O)C1=C(C)NC(=S)NC1c1cn(C(=O)CNc2ccc([N+](=O)[O-])cc2C)c2ccccc12` (centres undefined): the “-logMIC” value worked out at 1.61.
Still for that read-out and setting: next, `CCOC(=O)C1=C(C)NC(=O)NC1c1cn(C(=O)CNc2ccccc2[N+](=O)[O-])c2ccccc12` (centres undefined): 1.58.

The next data set deals with Aspergillus niger. Description: Antifungal activity against Aspergillus niger MTCC 8189 after 7 days by tube dilution method. It counts as functional.
Conditions: not given
Take `CCOC(=O)C1=C(C)NC(=O)NC1c1cn(C(=O)CNc2ccc([N+](=O)[O-])cc2C)c2ccccc12` (centres undefined): the “-logMIC” value amounted to 1.59.
On the same count and under the same terms, for `CCOC(=O)C1=C(C)NC(=S)NC1c1cn(C(=O)CNc2ccc([N+](=O)[O-])cc2C)c2ccccc12` (centres undefined) the value was 1.61; for `CCOC(=O)C1=C(C)NC(=O)NC1c1cn(C(=O)CNc2ccccc2[N+](=O)[O-])c2ccccc12` (centres undefined), 1.58.

A further data set relates to Staphylococcus aureus. As to the kind of experiment: Antibacterial activity against Staphylococcus aureus MTCC 2901 after 24 hrs followed by subculturing.
Conditions: not given
Format: functional.
The molecule `CCOC(=O)C1=C(C)NC(=O)NC1c1cn(C(=O)CNc2ccc([N+](=O)[O-])cc2C)c2ccccc12` (centres undefined) had an MBC of over 0.1 uM/ml.
For the molecule `CCOC(=O)C1=C(C)NC(=S)NC1c1cn(C(=O)CNc2ccc([N+](=O)[O-])cc2C)c2ccccc12` (centres undefined), the MBC is given as over 0.1 uM/ml.
The same measure, in the same setting: for `CCOC(=O)C1=C(C)NC(=O)NC1c1cn(C(=O)CNc2ccccc2[N+](=O)[O-])c2ccccc12` (centres undefined) the value was over 0.1 uM/ml.

The test system of another data set is Bacillus subtilis. As to the kind of experiment: Antibacterial activity against Bacillus subtilis MTCC 2063 after 24 hrs by tube dilution method hrs followed by subculturing.
Conditions: not given
It counts as functional.
In the case of `CCOC(=O)C1=C(C)NC(=O)NC1c1cn(C(=O)CNc2ccc([N+](=O)[O-])cc2C)c2ccccc12` (centres undefined), the MBC is over 0.1 uM/ml.
`CCOC(=O)C1=C(C)NC(=S)NC1c1cn(C(=O)CNc2ccc([N+](=O)[O-])cc2C)c2ccccc12` (centres undefined) gave an MBC of over 0.1 uM/ml.
On the same count and under the same terms, next, `CCOC(=O)C1=C(C)NC(=O)NC1c1cn(C(=O)CNc2ccccc2[N+](=O)[O-])c2ccccc12` (centres undefined): over 0.1 uM/ml.

The subject of the next data set is Escherichia coli. Description: Antibacterial activity against Escherichia coli MTCC 1652 after 24 hrs by tube dilution method hrs followed by subculturing. Format: functional.
Conditions: not given
Molecule `CCOC(=O)C1=C(C)NC(=O)NC1c1cn(C(=O)CNc2ccc([N+](=O)[O-])cc2C)c2ccccc12` (centres undefined) gave an MBC of over 0.1 uM/ml.
The same measure, in the same setting: next, `CCOC(=O)C1=C(C)NC(=S)NC1c1cn(C(=O)CNc2ccc([N+](=O)[O-])cc2C)c2ccccc12` (centres undefined): over 0.1 uM/ml; `CCOC(=O)C1=C(C)NC(=O)NC1c1cn(C(=O)CNc2ccccc2[N+](=O)[O-])c2ccccc12` (centres undefined): over 0.1 uM/ml.

In the next data set the test system is Candida albicans. Description: Antifungal activity against Candida albicans MTCC 227 after 48 hrs by tube dilution method hrs followed by subculturing. It counts as functional.
Conditions: not given
On to `CCOC(=O)C1=C(C)NC(=O)NC1c1cn(C(=O)CNc2ccc([N+](=O)[O-])cc2C)c2ccccc12` (centres undefined), for which the MFC is reported as over 0.1 uM/ml.
The same measure, in the same setting: for `CCOC(=O)C1=C(C)NC(=S)NC1c1cn(C(=O)CNc2ccc([N+](=O)[O-])cc2C)c2ccccc12` (centres undefined) the value was over 0.1 uM/ml.
In the case of `CCOC(=O)C1=C(C)NC(=O)NC1c1cn(C(=O)CNc2ccccc2[N+](=O)[O-])c2ccccc12` (centres undefined), the MFC is listed as over 0.1 uM/ml.

The next data set relates to Aspergillus niger. Description: Antifungal activity against Aspergillus niger MTCC 8189 after 7 days by tube dilution method hrs followed by subculturing. It counts as functional.
Conditions: not given
`CCOC(=O)C1=C(C)NC(=O)NC1c1cn(C(=O)CNc2ccc([N+](=O)[O-])cc2C)c2ccccc12` (centres undefined) registered an MFC of over 0.1 uM/ml.
Molecule `CCOC(=O)C1=C(C)NC(=S)NC1c1cn(C(=O)CNc2ccc([N+](=O)[O-])cc2C)c2ccccc12` (centres undefined) showed an MFC of over 0.1 uM/ml.
Same read-out and setting: next, `CCOC(=O)C1=C(C)NC(=O)NC1c1cn(C(=O)CNc2ccccc2[N+](=O)[O-])c2ccccc12` (centres undefined): over 0.1 uM/ml.

Another data set deals with Staphylococcus aureus. As to the kind of experiment: Ratio of MIC to MBC for Staphylococcus aureus MTCC 2901. It counts as functional.
Conditions: not given
`CCOC(=O)C1=C(C)NC(=O)NC1c1cn(C(=O)CNc2ccc([N+](=O)[O-])cc2C)c2ccccc12` (centres undefined): the Ratio was determined as 3.
The same measure, in the same setting: next, `CCOC(=O)C1=C(C)NC(=S)NC1c1cn(C(=O)CNc2ccc([N+](=O)[O-])cc2C)c2ccccc12` (centres undefined): 3.
On the same count and under the same terms, next, `CCOC(=O)C1=C(C)NC(=O)NC1c1cn(C(=O)CNc2ccccc2[N+](=O)[O-])c2ccccc12` (centres undefined): 3.

For another data set, the system named is Bacillus subtilis. As to the kind of experiment: Ratio of MIC to MBC for Bacillus subtilis MTCC 2063. Format: functional.
Conditions: not given
Turning to `CCOC(=O)C1=C(C)NC(=O)NC1c1cn(C(=O)CNc2ccc([N+](=O)[O-])cc2C)c2ccccc12` (centres undefined), the Ratio is listed as 3.
Still for that read-out and setting: next, `CCOC(=O)C1=C(C)NC(=S)NC1c1cn(C(=O)CNc2ccc([N+](=O)[O-])cc2C)c2ccccc12` (centres undefined): 3.
Regarding `CCOC(=O)C1=C(C)NC(=O)NC1c1cn(C(=O)CNc2ccccc2[N+](=O)[O-])c2ccccc12` (centres undefined), the Ratio is 3.

A further data set concerns Escherichia coli. As to the kind of experiment: Ratio of MIC to MBC for Escherichia coli MTCC 1652. Format: functional.
Conditions: not given
As for `CCOC(=O)C1=C(C)NC(=O)NC1c1cn(C(=O)CNc2ccc([N+](=O)[O-])cc2C)c2ccccc12` (centres undefined), the Ratio is recorded as 3.
On the same count and under the same terms, next, `CCOC(=O)C1=C(C)NC(=S)NC1c1cn(C(=O)CNc2ccc([N+](=O)[O-])cc2C)c2ccccc12` (centres undefined): 3.
Still for that read-out and setting: for `CCOC(=O)C1=C(C)NC(=O)NC1c1cn(C(=O)CNc2ccccc2[N+](=O)[O-])c2ccccc12` (centres undefined) the value was 3.

A further data set relates to Candida albicans. Description: Ratio of MIC to MFC for Candida albicans MTCC 227. It counts as functional.
Conditions: not given
In the case of `CCOC(=O)C1=C(C)NC(=O)NC1c1cn(C(=O)CNc2ccc([N+](=O)[O-])cc2C)c2ccccc12` (centres undefined), the Ratio was 3.
Still for that read-out and setting: next, `CCOC(=O)C1=C(C)NC(=S)NC1c1cn(C(=O)CNc2ccc([N+](=O)[O-])cc2C)c2ccccc12` (centres undefined): 3.
Same read-out and setting: next, `CCOC(=O)C1=C(C)NC(=O)NC1c1cn(C(=O)CNc2ccccc2[N+](=O)[O-])c2ccccc12` (centres undefined): 3.

The next data set relates to Aspergillus niger. Description: Ratio of MIC to MFC for Aspergillus niger MTCC 8189.
Conditions: not given
It counts as functional.
In the case of `CCOC(=O)C1=C(C)NC(=O)NC1c1cn(C(=O)CNc2ccc([N+](=O)[O-])cc2C)c2ccccc12` (centres undefined), the Ratio amounted to 3.
In the case of `CCOC(=O)C1=C(C)NC(=S)NC1c1cn(C(=O)CNc2ccc([N+](=O)[O-])cc2C)c2ccccc12` (centres undefined), the Ratio is on record as 3.
With `CCOC(=O)C1=C(C)NC(=O)NC1c1cn(C(=O)CNc2ccccc2[N+](=O)[O-])c2ccccc12` (centres undefined), the Ratio came to 3.

System in a further data set: not listed separately
As to the kind of experiment: Partition coefficient, log P of the compound. Format: physicochemical. Conditions: octanol/water.
For the molecule `CCOC(=O)C1=C(C)NC(=O)NC1c1cn(C(=O)CNc2ccc([N+](=O)[O-])cc2C)c2ccccc12` (centres undefined), the logP amounted to 1.94.
The same measure, in the same setting: next, `CCOC(=O)C1=C(C)NC(=S)NC1c1cn(C(=O)CNc2ccc([N+](=O)[O-])cc2C)c2ccccc12` (centres undefined): 3.34.
Consider `CCOC(=O)C1=C(C)NC(=O)NC1c1cn(C(=O)CNc2ccccc2[N+](=O)[O-])c2ccccc12` (centres undefined), for which the logP was determined as 1.48.

Another data set has as its system MCF7. As to the kind of experiment: cells. The note with it: Homo sapiens, MCF7, 72 h.
Description: Cytotoxicity against human MCF7 cells after 72 hrs by MTT assay
The molecule `CCOC(=O)C1=C(C)NC(=O)NC1c1cn(C(=O)CNc2ccc([N+](=O)[O-])cc2C)c2ccccc12` (centres undefined) gave an IC50 of 50 µg/mL (≈ 102 µM).
In turn, `CCOC(=O)C1=C(C)NC(=S)NC1c1cn(C(=O)CNc2ccc([N+](=O)[O-])cc2C)c2ccccc12` (centres undefined) came in with an IC50 of 48 µg/mL (≈ 94.6 µM).
On the same count and under the same terms, for `CCOC(=O)C1=C(C)NC(=O)NC1c1cn(C(=O)CNc2ccccc2[N+](=O)[O-])c2ccccc12` (centres undefined) the value was 40 µg/mL (≈ 83.8 µM).

The next data set deals with HCT-116. Description: cells. Conditions: Homo sapiens, HCT-116, 72 h.
Consider `CCOC(=O)C1=C(C)NC(=O)NC1c1cn(C(=O)CNc2ccc([N+](=O)[O-])cc2C)c2ccccc12` (centres undefined), for which the IC50 came out at 600 µg/mL (≈ 1220 µM).
Turning to `CCOC(=O)C1=C(C)NC(=S)NC1c1cn(C(=O)CNc2ccc([N+](=O)[O-])cc2C)c2ccccc12` (centres undefined), the IC50 was over 1000 µg/mL.
Same read-out and setting: for `CCOC(=O)C1=C(C)NC(=O)NC1c1cn(C(=O)CNc2ccccc2[N+](=O)[O-])c2ccccc12` (centres undefined) the value was 250 µg/mL (≈ 524 µM).

(Values after ChEMBL document CHEMBL1932988, “Synthesis, antimicrobial, anticancer evaluation and QSAR studies of 6-methyl-4-[1-(2-substituted-phenylamino-acetyl)-1H-indol-3-yl]-2-oxo/thioxo-1,2,3,4-tetrahydropyrimidine-5-carboxylic acid ethyl esters” (Eur J Med Chem, 2012).)
